Results reported in US10154991B2, “Anesthetic compounds and related methods of use” (priority 2012, dated 2018).
Where two headings read alike, the source gives them in different places.

Key:
rats = assay: loss of righting reflexes (LORR) assay after IV bolus; conditions: for R/S ED50 ratio: ED50 for LORR of R form over S form; for ED50: Rattus norvegicus, iv, read-out: ED50 ± SD; for hypnotic potency compared with methoxycarbonyl etomidate and etomidate / in vivo duration of action compared with methoxycarbonyl etomidate and etomidate: rat, in vivo
Procedure: Adult male Sprague-Dawley rats (230-350 gm) were purchased from Charles River Laboratories (Wilmington, Mass.) and housed in the Massachusetts General Hospital Center for Comparative Medicine animal care facility. All drugs were administered through a femoral venous catheter pre-implanted by the vendor prior to animal delivery to our animal care facility.
Immediately after injection, rats were turned supine. […] A stopwatch was used to measure the duration of LORR, which was defined as the time from drug injection until the animal spontaneously righted itself.

Sprague-Dawley rats = assay: In vivo sedative/hypnotic testing, IV bolus, rats; design: species or system rat; conditions: for Rat response: IV bolus, doses as in the cell; for ED50: Rattus norvegicus, sedation/hypnosis, IV
Procedure: (§1) Animals were housed in a dedicated room at the vivarium of VivoPath Inc., located at Redstone Center, 55 Union Street, Worcester, Mass. Housing and care was as specified in the USDA Animal Welfare Act (9 CFR, Parts 1, 2, and 3) and as described in the Guide for the Care and Use of Laboratory Animals from the National Research Council. Environmental conditions of housing rooms are set at the following ranges: temperature: 70±7° F. (22±4° C.), humidity: 50±20%, light cycle: 12-hour light/12-hour dark cycle—lights on at 7 am and off at 7 pm., air changes: ten or more air changes per hour with 100% fresh air. The animals' body weights were measured prior to the first dose on each experimental day.
Adult male Sprague-Dawley rats (225-300 g) were purchased from Harlan (South Easton, Mass.).
(§2) Drugs were prepared in either dimethylsulfoxide/saline or saline vehicle or hydroxypropyl-β-cyclodextrin (20% in water, pH 7.0) solution and were administered as an intravenous bolus injection. Animals received 1-4 doses of drug(s) during an experimental day, either ascending doses or different drugs. Doses were administered at intervals equal to the longer of 1 h or 10-times the duration of apparent sedative/hypnotic effects from the previous dose. The sedative/hypnotic properties of the drugs were evaluated by observation of the rats, ranging from mild excitation, mild sedation apparent due to reduced activity, and moderate sedation to hypnosis reflected by loss of righting reflex (LORR, the ability to place rear and hind legs under the body, as well as attenuation/loss of nociceptive reflexes).

[1] = Octanol:water partition coefficients; assay type: physicochemical; conditions: 10 mM Tris pH 7.4; read-out: Octanol/Water Partition Coefficient ± SD (converted)
Procedure: One mg of each hypnotic was added to 10 ml of water buffered with 10 mM Tris (pH 7.4) and 0.5 ml or 1 ml of octanol. The mixture was stirred overnight and then centrifuged to more fully separate the organic and aqueous phases. The relative hypnotic concentrations in each phase (i.e. the partition coefficient) were determined by high performance liquid chromatography as described for blood.

[2] = In vitro metabolic half-life of hypnotics in rat blood; assay type: in vitro ADME; conditions: for half-life at 100 μM: Sprague-Dawley, rat; for half-life at 100 μM / metabolic half-life of S form compared with R form: rat blood
Procedure: On the day of study, whole blood was drawn from the femoral venous catheters of 3 Sprague-Dawley rats (1-2 ml/rat), immediately anticoagulated with heparin (38 U), pooled, and stored on ice. A 1 ml aliquot of blood was warmed at 37° C. for 5 minutes and hypnotic (from a 40 mM in dimethyl sulfoxide stock solution) was added to a final concentration of 100 μM. After the desired incubation time, a 150 μl sample was removed and the metabolic reaction was quenched with 150 μl acetonitrile (Sigma-Aldrich, St. Louis, Mo.). Zero time point samples were prepared by adding 150 μl acetonitrile to blood prior to adding hypnotic (from a 4 mM in dimethyl sulfoxide stock solution). The quenched samples were centrifuged and the resultant supernatant separated and stored at −20° C. until analyzed. Hypnotic concentrations in thawed samples were determined by high performance liquid chromatography using a Varian Prostar system with a 4.6×250 mm Proto 300 C18 column (Nest Group, Southborough, Mass.) with the UV detector set at 240 nm.

ICR mice = assay: In vivo sedative/hypnotic testing, IV bolus, mice; design: species or system mouse; conditions: for Mouse response: IV bolus, doses as in the cell; for ED50: Mus musculus, sedation/hypnosis, IV
Procedure: as §1
Adult ICR mice (20-30 g) were purchased from Harlan (South Easton, Mass.). Drugs were administered as intravenous bolus injection in a tail vein.
as §2

beagle dogs = conditions: dog, in vivo
Procedure: A pilot study was conducted in dogs to assess anesthesia induced by cyclopropyl-MOC-metomidate continuous infusion without a bolus induction dosing. Two dogs received cyclopropyl-MOC-metomidate as a 1 mg/kg/min IV infusion without prior bolus administration.
Anesthesia induction was determined using the methods described above.
Etomidate was administered to dogs at IV bolus doses ranging from 0.25 to 2 mg/kg. Anesthesia in the dogs was measured as described above. […] The bolus dose of 2 mg/kg was adopted to induce anesthesia prior to subsequent continuous infusions.
Propofol was administered to dogs as an IV bolus dose of 5 mg/kg to induce anesthesia followed by a continuous infusion at 0.4 mg/kg/min.

[3] = pooled heparinised whole blood, 37° C., 100 μM, read-out: Blood Half-Life (95% CI)
[4] = pooled heparinised whole blood, bound based on the lower limit of quantification, read-out: metabolic half-life in rat blood (converted)

In the case of `COC(=O)C(OC(=O)c1cncn1C(C)c1ccccc1)C(C)C` (stereo not drawn) [isopropyl-methoxycarbonyl metomidate], the “R/S ED50 ratio” value (rats) is reported as 3.0.
For `COC(=O)C1(OC(=O)c2cncn2[C@H](C)c2ccccc2)CCCC1`, the Rat response (Sprague-Dawley rats) was “Sedative at 1 & 2 mg/kg, with rear paws out but head and forepaws mobile Hypnotic at 4 & 8 mg/kg, quite long-acting”.
For `COC(=O)[C@H](OC(=O)c1cncn1[C@H](C)c1ccccc1)C(C)C` [S-isopropyl-methoxycarbonyl metomidate], the ED50 (rats) was 1.2 ± 0.19 mg/kg, the “Slope of Duration vs. Log Dose ± SD” value (rats; duration of LORR vs log dose, rats) was 12.1±1.1 min/(log mg/kg) and the logD [1] was 3.46. The half-life at 100 μM [2, 3] was 930 s and the “metabolic half-life of S form compared with R form” value [2] was “two orders of magnitude longer”.
For `CCOC(=O)c1cncn1[C@H](C)c1ccccc1` [drawing 81], the Rat response (Sprague-Dawley rats) was “Sedation/hypnosis induced at 2 & 4 mg/kg IV”, the ED50 (Sprague-Dawley rats) was ~0.7 mg/kg and the Mouse response (ICR mice) was “Sedation/hypnosis induced at 2 & 4 mg/kg IV”. It also gave an ED50 (ICR mice) of ~0.7 mg/kg.
`COC(=O)CC(C)(C)OC(=O)c1cncn1[C@H](C)c1ccccc1` [β-dimethyl- methoxycarbonyl etomidate, β-dimethyl-MOC-etomidate] gave an ED50 (rats) of 1.9 ± 0.3 mg/kg, a logD [1] of 3.2 and a half-life at 100 μM [2, 3] of 1400 s.
With cyclopentyl-methoxycarbonyl metomidate the “hypnotic potency compared with methoxycarbonyl etomidate and etomidate” value (rats) was “nearly an order of magnitude higher than that of methoxycarbonyl etomidate and similar to that of etomidate” and the “in vivo duration of action compared with methoxycarbonyl etomidate and etomidate” value (rats) was “intermediate between those of methoxycarbonyl etomidate and etomidate”.
In the case of `C[C@H](c1ccccc1)n1cncc1C(=O)OC1(C(=O)OC2COC2)CC1`, the Mouse response (ICR mice) is reported as “No effect at 4 mg/kg IV”.
For `CC(C)c1cccc(C(C)C)c1O` [Propofol], the “emergence from anesthesia after the end of infusion” value (beagle dogs) was “approximately 15 minutes”, the “recovery of normal behavior after infusion” value (beagle dogs) was ≥ 30 min and the “recovery time relative to cyclopropyl-MOC-metomidate infusion of the same duration” value (beagle dogs) was “approximately 3 fold”.
In the case of `COC(=O)C(OC(=O)c1cncn1[C@H](C)c1ccccc1)C1CC1` (stereo partly drawn), the Mouse response (ICR mice) is reported as “Sedation/hypnosis induced at 8, 16 & 32 mg/kg IV” and the ED50 (ICR mice) is reported as ~8 mg/kg.
For `COC(=O)[C@H](C)COC(=O)c1cncn1[C@H](C)c1ccccc1` [α-(R)- methyl- methoxycarbonyl etomidate, α-R-methyl-methoxycarbonyl etomidate], the ED50 (rats) was 5.2 ± 0.5 mg/kg, the logD [1] was 2.83 and the half-life at 100 μM [2, 3] was 11.4 s.
`COC(=O)[C@H](C)OC(=O)c1cncn1[C@H](C)c1ccccc1` [(S)-methyl- methoxycarbonyl metomidate, S-methyl-methoxycarbonyl metomidate] gave an ED50 (rats) of 3.5 ± 0.4 mg/kg, a logD [1] of 2.52 and a half-life at 100 μM [2, 3] of 8.4 s. For the same compound, the “metabolic half-life of S form compared with R form” value [2] was “at least four-fold longer”.
In the case of β-methyl-methoxycarbonyl etomidate, the “R/S ED50 ratio” value (rats) is reported as 1.2.
For `COC(=O)C1(OC(=O)c2cncn2[C@H](C)c2ccccc2)CCCCC1`, the Rat response (Sprague-Dawley rats) was “Mildly sedative at 4 mg/kg Hypnotic at 8 mg/kg - deep and long-acting”.
With `COC(=O)c1cncn1[C@H](C)c1ccccc1` [Metomidate, reference compound] the ED50 (rats) was 0.73 ± 0.5 mg/kg, the logD [1] was 2.58 and the half-life at 100 μM [2, 3] was 8580 s.
For α-methyl-methoxycarbonyl etomidate, the “R/S ED50 ratio” value (rats) was 1.7.
With `COC(=O)C1(OC(=O)c2cncn2[C@H](C)c2ccccc2)CCC1` [Cyclobutyl-MOC-metomidate, cyclobutyl-methoxycarbonyl metomidate] the “hypnotic potency compared with methoxycarbonyl etomidate and etomidate” value (rats) was “nearly an order of magnitude higher than that of methoxycarbonyl etomidate and similar to that of etomidate”, the “in vivo duration of action compared with methoxycarbonyl etomidate and etomidate” value (rats) was “intermediate between those of methoxycarbonyl etomidate and etomidate” and the Rat response (Sprague-Dawley rats) was “Sedation/hypnosis induced at 1, 2, 4 & 8 mg/kg IV”. For the same compound, the ED50 (Sprague-Dawley rats) was ~1 mg/kg, the “slope of duration of LORR vs logarithm of dose” value (Sprague-Dawley rats; rats) was ~5 and the Mouse response (ICR mice) was “Sedation/hypnosis induced at 2, 4 & 8 mg/kg IV”. The ED50 (ICR mice) was 1 to 2 mg/kg and the “slope of duration of LORR vs logarithm of dose” value (ICR mice; mice) was “approximately 7”.
`COC(=O)C[C@@H](C)OC(=O)c1cncn1[C@H](C)c1ccccc1` [β-(R)- methyl- methoxycarbonyl etomidate, β-R-methyl-MOC-etomidate] gave an ED50 (rats) of 3.5 ± 0.6 mg/kg, a logD [1] of 2.7 and a half-life at 100 μM [2, 3] of 54.6 s.
For `COC(=O)C[C@H](C)OC(=O)c1cncn1[C@H](C)c1ccccc1` [β-(S)- methyl- methoxycarbonyl etomidate, β-S-methyl-MOC-etomidate], the ED50 (rats) was 2.9 ± 0.3 mg/kg, the logD [1] was 2.68 and the half-life at 100 μM [2, 3] was 43.2 s.
With methyl-methoxycarbonyl metomidate the “R/S ED50 ratio” value (rats) was 2.7.
For `COC(=O)C1(OC(=O)c2cncn2[C@H](C)c2ccccc2)CCNCC1`, the Rat response (Sprague-Dawley rats) was “No effect apparent at 4, 8 & 16 mg/kg”.
With `COC(=O)C1(OC(=O)c2cncn2[C@H](C)c2ccccc2)CCOCC1` the Rat response (Sprague-Dawley rats) was “Mildly sedative at 16 mg/kg More profound short-acting sedation at 32 mg/kg”.
For `COC(=O)C(C)(C)OC(=O)c1cncn1[C@H](C)c1ccccc1` [Dimethyl- methoxycarbonyl metomidate, dimethyl-methoxycarbonyl metomidate], the “lethal dose relative to ED50 for LORR” value (rats; 20 mg/kg dose vs ED50) was 28 fold, the ED50 (rats) was 0.72 ± 0.16 mg/kg and the “death of a rat after dosing” value (rats; one rat, 20 mg/kg dose) was “died”. The “hypnotic potency compared with methoxycarbonyl etomidate and etomidate” value (rats) was “nearly an order of magnitude higher than that of methoxycarbonyl etomidate and similar to that of etomidate”, the “in vivo duration of action compared with methoxycarbonyl etomidate and etomidate” value (rats) was “intermediate between those of methoxycarbonyl etomidate and etomidate” and the logD [1] was 2.82. For the same compound, the “in vitro metabolic half-life compared with methoxycarbonyl etomidate and etomidate” value [2] was “intermediate between those of methoxycarbonyl etomidate and etomidate” and the half-life at 100 μM ([2]; 37° C., 100 μM, read-out: Blood Half-Life (95% CI)) was 522 s.
For `COC(=O)C(C)(C)COC(=O)c1cncn1[C@H](C)c1ccccc1` [α-dimethyl- methoxycarbonyl etomidate, α-dimethyl-MOC-etomidate], the ED50 (rats) was 2.4 ± 1 mg/kg, the logD [1] was 3.35 and the half-life at 100 μM [2, 3] was 156 s.
For `COC(=O)c1ccccc1OC(=O)c1cncn1[C@H](C)c1ccccc1`, the Mouse response (ICR mice) was “Mild excitation but no sedation at 2, 4 or 8 mg/kg IV”.
With `COC(=O)C1(OC(=O)c2cncn2[C@H](C)c2ccccc2)CCN(C)CC1` the Rat response (Sprague-Dawley rats) was “No effect apparent at 4, 8 & 16 mg/kg”.
With `COC(=O)COC(=O)c1cncn1[C@H](C)c1ccccc1` [Methoxycarbonyl metomidate, methoxycarbonyl metomidate] the ED50 (rats) was 11.1 ± 0.8 mg/kg, the logD [1] was 2.2 and the half-life at 100 μM [2, 3] was < 1.8 s. The half-life at 100 μM [2, 4] was < 2 s.
For `COC(=O)[C@@H](C)OC(=O)c1cncn1[C@H](C)c1ccccc1` [(R)-methyl- methoxycarbonyl metomidate, R-methyl-methoxycarbonyl metomidate], the ED50 (rats) was 9.6 ± 1.9 mg/kg, the logD [1] was 2.58 and the half-life at 100 μM [2, 3] was < 1.8 s. For the same compound, the half-life at 100 μM [2, 4] was < 2 s.
`COC(=O)[C@@H](C)COC(=O)c1cncn1[C@H](C)c1ccccc1` [α-(S)- methyl- methoxycarbonyl etomidate, α-S-methyl-methoxycarbonyl etomidate] showed an ED50 (rats) of 3.1 ± 0.4 mg/kg, a logD [1] of 2.72 and a half-life at 100 μM [2, 3] of 45.6 s. For the same compound, the “metabolic half-life of S form compared with R form” value [2] was “at least four-fold longer”.
With `COC(=O)C1(OC(=O)c2cncn2[C@H](C)c2ccccc2)CC1` [drawing 83] the Rat response (Sprague-Dawley rats) was “Sedation/hypnosis induced at 2 & 4 mg/kg IV”, the ED50 (Sprague-Dawley rats) was ~0.7 mg/kg and the Mouse response (ICR mice) was “Sedation/hypnosis induced at 2 & 4 mg/kg IV”. For the same compound, the ED50 (ICR mice) was ~0.7 mg/kg.
